In general, AC50 refers to the concentration giving half of the maximal activity seen. Higher therefore signals weaker potency.

The target of assay [1] is T1, Neuropeptide Y receptor type 1 (Homo sapiens, UniProt P25929).
T1 sequence (P25929 whole entry): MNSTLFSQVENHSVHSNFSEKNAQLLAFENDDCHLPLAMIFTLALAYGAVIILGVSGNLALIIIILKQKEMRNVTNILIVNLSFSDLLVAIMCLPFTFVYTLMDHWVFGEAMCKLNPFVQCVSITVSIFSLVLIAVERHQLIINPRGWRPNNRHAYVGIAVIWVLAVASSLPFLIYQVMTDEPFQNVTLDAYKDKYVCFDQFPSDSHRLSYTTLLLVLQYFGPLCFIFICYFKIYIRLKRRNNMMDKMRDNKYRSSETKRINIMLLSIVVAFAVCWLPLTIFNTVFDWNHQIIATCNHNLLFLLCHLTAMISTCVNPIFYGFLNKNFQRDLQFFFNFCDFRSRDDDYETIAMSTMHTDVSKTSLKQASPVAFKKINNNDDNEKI

The target in assay [2] is Glutamate receptor ionotropic, NMDA 1 (Rattus norvegicus, UniProt P35439).
For another assay, the target named is Cannabinoid receptor 1 (Homo sapiens, UniProt P21554). Type of assay: functional, cell-based.
The target in a further assay is D(3) dopamine receptor (Homo sapiens, UniProt P35462).
Assay [3] concerns the target T2, Muscarinic acetylcholine receptor M2 (Homo sapiens, UniProt P08172).
T2 sequence (P08172 whole entry): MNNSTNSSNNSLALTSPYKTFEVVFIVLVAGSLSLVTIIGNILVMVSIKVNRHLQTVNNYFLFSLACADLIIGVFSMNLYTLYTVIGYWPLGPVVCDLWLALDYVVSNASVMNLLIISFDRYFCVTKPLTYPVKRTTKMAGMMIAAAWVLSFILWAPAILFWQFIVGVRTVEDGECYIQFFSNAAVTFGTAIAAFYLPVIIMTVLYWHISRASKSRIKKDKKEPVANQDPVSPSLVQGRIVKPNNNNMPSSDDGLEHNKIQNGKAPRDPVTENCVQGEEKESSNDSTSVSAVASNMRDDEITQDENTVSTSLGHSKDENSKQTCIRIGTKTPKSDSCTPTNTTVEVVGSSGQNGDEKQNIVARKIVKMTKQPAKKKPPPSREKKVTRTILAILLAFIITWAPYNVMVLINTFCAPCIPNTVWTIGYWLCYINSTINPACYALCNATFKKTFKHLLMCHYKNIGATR

For the next assay, the target named is T3, Estrogen receptor (Homo sapiens, UniProt P03372).
T3 sequence (P03372 whole entry): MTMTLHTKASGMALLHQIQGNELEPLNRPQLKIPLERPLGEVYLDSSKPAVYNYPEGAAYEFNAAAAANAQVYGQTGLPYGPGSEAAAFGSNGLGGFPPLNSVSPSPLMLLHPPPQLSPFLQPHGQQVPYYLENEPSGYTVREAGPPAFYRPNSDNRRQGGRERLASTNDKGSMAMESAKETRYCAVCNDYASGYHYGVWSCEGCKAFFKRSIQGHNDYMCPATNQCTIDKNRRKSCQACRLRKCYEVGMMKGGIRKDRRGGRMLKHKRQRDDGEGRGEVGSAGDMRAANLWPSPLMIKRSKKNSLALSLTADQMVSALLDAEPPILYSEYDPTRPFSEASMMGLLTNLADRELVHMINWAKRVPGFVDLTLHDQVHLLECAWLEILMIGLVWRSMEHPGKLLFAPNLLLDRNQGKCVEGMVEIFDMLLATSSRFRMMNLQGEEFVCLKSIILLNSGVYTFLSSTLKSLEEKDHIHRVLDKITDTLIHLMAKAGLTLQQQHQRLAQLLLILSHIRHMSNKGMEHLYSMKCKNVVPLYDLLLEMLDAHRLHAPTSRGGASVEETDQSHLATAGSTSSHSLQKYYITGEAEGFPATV

A further assay has as its target D(1A) dopamine receptor (Homo sapiens, UniProt P21728).
Another assay has as its target T4, Adenosine receptor A3 (Homo sapiens, UniProt P0DMS8).
T4 sequence (P0DMS8 whole entry): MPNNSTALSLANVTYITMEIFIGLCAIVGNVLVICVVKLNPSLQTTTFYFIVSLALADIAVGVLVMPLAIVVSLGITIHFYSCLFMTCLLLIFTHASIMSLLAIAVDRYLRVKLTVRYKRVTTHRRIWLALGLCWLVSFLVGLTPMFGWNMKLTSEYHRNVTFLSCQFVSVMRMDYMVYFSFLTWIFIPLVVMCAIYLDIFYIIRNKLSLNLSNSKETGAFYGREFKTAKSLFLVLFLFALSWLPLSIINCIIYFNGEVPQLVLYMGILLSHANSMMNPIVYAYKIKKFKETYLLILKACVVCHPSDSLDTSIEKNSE

The next assay deals with T5, Progesterone receptor (Homo sapiens, UniProt P06401).
T5 sequence (P06401 whole entry): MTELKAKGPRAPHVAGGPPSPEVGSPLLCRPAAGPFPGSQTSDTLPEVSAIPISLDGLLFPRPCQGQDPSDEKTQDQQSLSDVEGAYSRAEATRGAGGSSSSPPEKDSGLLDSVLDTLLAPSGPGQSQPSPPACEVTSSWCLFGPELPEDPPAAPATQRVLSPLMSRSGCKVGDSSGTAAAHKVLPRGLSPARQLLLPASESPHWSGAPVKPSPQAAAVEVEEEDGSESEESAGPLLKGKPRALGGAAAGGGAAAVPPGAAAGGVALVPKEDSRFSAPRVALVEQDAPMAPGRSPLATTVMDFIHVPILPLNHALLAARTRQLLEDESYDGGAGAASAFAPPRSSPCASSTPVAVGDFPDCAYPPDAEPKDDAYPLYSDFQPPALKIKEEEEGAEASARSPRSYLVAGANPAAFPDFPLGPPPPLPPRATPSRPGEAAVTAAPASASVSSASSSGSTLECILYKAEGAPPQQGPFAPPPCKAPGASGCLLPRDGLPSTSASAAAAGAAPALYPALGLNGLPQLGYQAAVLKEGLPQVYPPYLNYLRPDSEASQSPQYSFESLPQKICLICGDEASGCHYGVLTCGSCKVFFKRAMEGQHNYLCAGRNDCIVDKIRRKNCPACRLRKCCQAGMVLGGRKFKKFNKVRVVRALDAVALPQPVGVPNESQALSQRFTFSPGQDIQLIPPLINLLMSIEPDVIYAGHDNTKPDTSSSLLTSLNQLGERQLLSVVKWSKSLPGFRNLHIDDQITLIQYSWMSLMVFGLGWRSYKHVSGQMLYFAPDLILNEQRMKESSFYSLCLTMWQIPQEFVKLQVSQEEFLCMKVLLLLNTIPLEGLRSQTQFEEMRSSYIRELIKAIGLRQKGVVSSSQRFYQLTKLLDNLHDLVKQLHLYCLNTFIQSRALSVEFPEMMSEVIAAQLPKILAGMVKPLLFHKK
In kind it is functional.
Note: assay procedure not described here.

Sequence of D(1A) dopamine receptor (P21728 whole entry): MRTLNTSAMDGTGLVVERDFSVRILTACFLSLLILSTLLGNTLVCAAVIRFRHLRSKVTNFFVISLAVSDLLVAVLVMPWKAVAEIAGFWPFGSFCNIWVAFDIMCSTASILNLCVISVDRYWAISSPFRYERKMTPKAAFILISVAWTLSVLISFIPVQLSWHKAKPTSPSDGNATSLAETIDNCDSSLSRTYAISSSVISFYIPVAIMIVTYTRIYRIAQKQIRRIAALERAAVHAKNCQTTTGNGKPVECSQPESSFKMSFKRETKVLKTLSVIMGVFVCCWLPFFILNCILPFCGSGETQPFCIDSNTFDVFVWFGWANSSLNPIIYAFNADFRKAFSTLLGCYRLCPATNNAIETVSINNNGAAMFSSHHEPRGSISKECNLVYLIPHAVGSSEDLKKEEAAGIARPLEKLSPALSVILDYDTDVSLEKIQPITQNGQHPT
Sequence of D(3) dopamine receptor (P35462 whole entry): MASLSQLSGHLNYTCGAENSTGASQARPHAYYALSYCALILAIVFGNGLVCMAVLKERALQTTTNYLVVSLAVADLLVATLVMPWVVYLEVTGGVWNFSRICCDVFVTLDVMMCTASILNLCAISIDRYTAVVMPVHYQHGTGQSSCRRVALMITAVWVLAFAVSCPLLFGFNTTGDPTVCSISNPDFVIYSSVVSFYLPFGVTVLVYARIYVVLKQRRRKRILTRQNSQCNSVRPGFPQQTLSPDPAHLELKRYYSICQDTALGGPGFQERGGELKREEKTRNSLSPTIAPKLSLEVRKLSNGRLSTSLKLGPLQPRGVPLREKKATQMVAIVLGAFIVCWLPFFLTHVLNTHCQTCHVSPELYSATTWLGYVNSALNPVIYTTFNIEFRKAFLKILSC
Sequence of Cannabinoid receptor 1 (P21554 whole entry): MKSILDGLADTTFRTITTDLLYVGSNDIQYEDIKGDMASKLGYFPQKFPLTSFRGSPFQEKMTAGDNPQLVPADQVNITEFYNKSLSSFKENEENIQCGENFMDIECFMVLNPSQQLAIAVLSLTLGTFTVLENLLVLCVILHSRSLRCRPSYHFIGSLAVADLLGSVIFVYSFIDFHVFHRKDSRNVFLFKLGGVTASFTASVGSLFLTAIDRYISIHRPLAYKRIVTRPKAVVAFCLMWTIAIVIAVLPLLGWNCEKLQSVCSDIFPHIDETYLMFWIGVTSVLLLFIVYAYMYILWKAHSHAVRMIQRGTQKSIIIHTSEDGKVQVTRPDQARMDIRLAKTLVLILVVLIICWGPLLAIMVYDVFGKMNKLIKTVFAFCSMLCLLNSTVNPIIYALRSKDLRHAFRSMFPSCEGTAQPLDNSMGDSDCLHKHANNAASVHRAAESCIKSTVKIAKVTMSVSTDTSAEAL

In the case of `CC[C@H]1OC(=O)[C@H](C)[C@@H](O[C@H]2C[C@@](C)(OC)[C@@H](O)[C@H](C)O2)[C@H](C)[C@@H](O[C@@H]2O[C@H](C)C[C@H](N(C)C)[C@H]2O)[C@](C)(O)C[C@@H](C)CN(C)[C@H](C)[C@@H](O)[C@]1(C)O` [AZITHROMYCIN], the AC50 in assay [1] was greater than 30 µM; in assay [2] it was greater than 10 µM; at Cannabinoid receptor 1, greater than 30 µM; at D(3) dopamine receptor it was greater than 30 µM; in assay [3], greater than 30 µM; on Estrogen receptor, greater than 30 µM. The compound further came in with an AC50 at D(1A) dopamine receptor greater than 30 µM.
For the compound `NCC(CC(=O)O)c1ccc(Cl)cc1` (configuration not stated) [BACLOFEN], the AC50 on Adenosine receptor A3 is greater than 30 µM; in assay [1], greater than 30 µM; in [2], greater than 10 µM; at Cannabinoid receptor 1 it was greater than 30 µM; on D(3) dopamine receptor it was 14.7 µM; in assay [3], greater than 30 µM. Besides, the AC50 on D(1A) dopamine receptor and on Progesterone receptor was greater than 30 µM each time.
Regarding `CCc1oc2ccccc2c1C(=O)c1cc(I)c(O)c(I)c1` [BENZIODARONE], the AC50 is 8.59 µM at D(3) dopamine receptor, greater than 30 µM in [3], greater than 30 µM at Estrogen receptor and 10 µM on D(1A) dopamine receptor.
Consider `COCc1c(C(C)C)nc(C(C)C)c(/C=C/[C@@H](O)C[C@@H](O)CC(=O)O)c1-c1ccc(F)cc1` [CERIVASTATIN], for which the AC50 on Adenosine receptor A3 is greater than 30 µM; on D(3) dopamine receptor, greater than 30 µM; in assay [3], greater than 30 µM; at Estrogen receptor, 23.3 µM; at D(1A) dopamine receptor, greater than 30 µM.
Take `Oc1c(Cl)cc(Cl)c2cccnc12` [CHLOROXINE]: the concentration at half-maximal activity (AC50) (at Adenosine receptor A3; on D(3) dopamine receptor; in assay [3]; on Estrogen receptor; on D(1A) dopamine receptor) was greater than 30 µM in each case.
Consider `C[N+](C)(C)CCO` [CHOLINE], for which the AC50 (on Adenosine receptor A3; at D(3) dopamine receptor; in assay [3]; on Estrogen receptor; at D(1A) dopamine receptor) was greater than 30 µM throughout.
As for `CN(C)[C@@H](c1cccc(O)c1)[C@H]1CCCC[C@H]1O` [CIRAMADOL], the AC50 (at Adenosine receptor A3; at D(3) dopamine receptor; in assay [3]; on Estrogen receptor; at D(1A) dopamine receptor) was greater than 30 µM throughout.
For `CN(C)CC(c1ccc(O)cc1)C1(O)CCCCC1` (configuration not stated) [DESVENLAFAXINE], the AC50 (at Adenosine receptor A3; in assay [3]; at Estrogen receptor; on D(1A) dopamine receptor) was greater than 30 µM in each case.
Consider `CN(C)CCN1C(=O)c2ccccc2N(C)c2ccccc21` [DIBENZEPIN], for which the AC50 on Adenosine receptor A3 was greater than 30 µM; on D(3) dopamine receptor it was 16.3 µM; in assay [3], 2.62 µM; on Estrogen receptor, greater than 30 µM; at D(1A) dopamine receptor it was 14.3 µM.
Regarding `O=C(Cc1ccc(-c2ccccc2)cc1)Nc1ccccn1` [DIFENPIRAMIDE], the AC50 (in [2]; at Cannabinoid receptor 1; at D(3) dopamine receptor; in assay [3]; on Estrogen receptor; at D(1A) dopamine receptor) was greater than 30 µM throughout.
For the compound `N[C@H](C(=O)O)[C@H](O)c1ccc(O)c(O)c1` [DROXIDOPA], the AC50 (on Adenosine receptor A3; at D(3) dopamine receptor; in assay [3]; at Estrogen receptor; on D(1A) dopamine receptor) was greater than 30 µM in each case.
`Cc1cc(C#N)cc(C)c1Oc1nc(Nc2ccc(C#N)cc2)nc(N)c1Br` [ETRAVIRINE]: the AC50 at D(3) dopamine receptor is greater than 30 µM; in assay [3] it was 22.6 µM; on Estrogen receptor, 6.28 µM; at D(1A) dopamine receptor, 4.53 µM.
Take `O=C(O)c1cc(O)ccc1O` [GENTISIC ACID]: the concentration at half-maximal activity (AC50) (at Adenosine receptor A3; at D(3) dopamine receptor; in assay [3]; at Estrogen receptor; at D(1A) dopamine receptor) was greater than 30 µM in each case.
For the compound `CCC1=C(C)CN(C(=O)NCCc2ccc(S(=O)(=O)NC(=O)N[C@H]3CC[C@H](C)CC3)cc2)C1=O` [GLIMEPIRIDE], the AC50 (at Adenosine receptor A3; on D(3) dopamine receptor; in assay [3]; at Estrogen receptor; on D(1A) dopamine receptor) was greater than 30 µM in each case.
Turning to `C[N+]1(C)CCC(OC(=O)C(O)(c2ccccc2)C2CCCC2)C1` (configuration not stated) [GLYCOPYRRONIUM BROMIDE], the AC50 on Estrogen receptor was greater than 30 µM; at Progesterone receptor it was greater than 10 µM.
Regarding `CC(C)Nc1ncccn1` [ISAXONINE], the AC50 (at Adenosine receptor A3; at D(3) dopamine receptor; in [3]; on Estrogen receptor; on D(1A) dopamine receptor) was greater than 30 µM each time.
Regarding `N[C@@H](C(=O)N[C@@H]1C(=O)N2C(C(=O)O)=C(Cl)CC[C@H]12)c1ccccc1` [LORACARBEF ANHYDROUS], the AC50 (at Adenosine receptor A3; on D(3) dopamine receptor; in [3]; on Estrogen receptor; at D(1A) dopamine receptor) was greater than 30 µM each time.
For `OCCN1C[C@H](O)[C@@H](O)[C@H](O)[C@H]1CO` [MIGLITOL], the AC50 (at Adenosine receptor A3; on D(3) dopamine receptor; in assay [3]; at Estrogen receptor; at D(1A) dopamine receptor) was greater than 30 µM throughout.
`COc1cc(NC(C)CCCN)c2ncccc2c1` (configuration not stated) [PRIMAQUINE]: the results for the half-maximal activity concentration (AC50) (at Adenosine receptor A3; in assay [1]; on Estrogen receptor) were 14.7 µM, greater than 30 µM and greater than 30 µM, respectively.
In the case of `CCCCCCOc1nsnc1C1=CCCN(C)C1` [XANOMELINE], the AC50 is greater than 30 µM on Adenosine receptor A3, 0.273 µM on D(3) dopamine receptor, greater than 30 µM on Estrogen receptor and 1.22 µM at D(1A) dopamine receptor.

The values are drawn from ChEMBL document CHEMBL5291721, “A preclinical secondary pharmacology resource illuminates target-adverse drug reaction associations of marketed drugs” (Nat Commun, 2023).
